What was measured:
MMP1 expression by SFs = assay: 'MMP assay': MMP1 expression by 'complex trigger' activated synovial fibroblasts (MMP1 ELISA); format: cell-based, human; settings: Homo sapiens, Fibroblast, RASFs, 48 hrs
MAPKAPK5 = target: T1, MAPKAPK5 (Homo sapiens, UniProt Q8IW41); assay: MAPKAP-K5 assay (FlashPlate, 33P-ATP); format: biochemical; settings: 0.6 μM ATP, 30 minutes at room temperature
T1 construct: 1 mU MAPKAP-K5
T1 sequence (Q8IW41 1-473): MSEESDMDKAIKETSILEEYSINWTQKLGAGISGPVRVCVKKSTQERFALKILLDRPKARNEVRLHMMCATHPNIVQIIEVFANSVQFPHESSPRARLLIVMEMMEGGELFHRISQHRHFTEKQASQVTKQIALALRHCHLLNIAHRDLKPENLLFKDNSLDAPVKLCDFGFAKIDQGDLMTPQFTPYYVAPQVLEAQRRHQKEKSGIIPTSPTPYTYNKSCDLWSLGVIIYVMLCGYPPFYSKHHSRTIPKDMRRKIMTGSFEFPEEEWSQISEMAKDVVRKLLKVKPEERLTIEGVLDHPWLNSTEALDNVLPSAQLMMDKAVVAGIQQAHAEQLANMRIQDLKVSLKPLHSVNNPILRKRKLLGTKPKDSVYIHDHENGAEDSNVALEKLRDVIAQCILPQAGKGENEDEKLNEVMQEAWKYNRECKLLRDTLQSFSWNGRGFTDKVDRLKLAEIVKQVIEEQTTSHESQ
Method: 3 μM MAPKAP-K5 peptide substrate

Row | IC50 (MAPKAPK5) [µM] | SMILES | EC50 (MMP1 expression by SFs) [µM]
1 | > 1 | COc1cc(Nc2ncc(-c3cn[nH]c3)n3ccnc23)ccc1C(=O)NCc1ccccc1 [Compound 182] | > 1
2 | > 1 | O=C(Nc1ccc(Nc2ncc(-c3cn[nH]c3)n3ccnc23)cn1)c1ccccc1 [Compound 183, N-{5-[5-(1H-Pyrazol-4-yl)imidazopyrazin-8-ylamino]pyridin-2-yl}benzamide] | 0.101 to 0.5
3 | > 1 | Cc1cc(-c2cnc(Nc3ccc(N4CCOCC4)cc3)c3nccn23)ccc1C(N)=O [Compound 185] | 0.501 to 1
4 | > 1 | COc1cc(Nc2ncc(-c3csc(C(N)=O)c3)n3ccnc23)ccc1C(=O)NCc1ccc(C)nc1 [Compound 190, 4-(8-{3-Methoxy-4-[(6-methylpyridin-3-ylmethyl)carbamoyl]phenylamino}imidazo[1,2-a]pyrazin-5-yl)thiophene-2-carboxylic acid amide] | 0.101 to 0.5
5 | > 1 | COc1cc(Nc2ncc(-c3csc(C(N)=O)c3)n3ccnc23)ccc1C(=O)NCc1ccccc1 [Compound 191] | > 1
6 | > 1 | NC(=O)c1cc(-c2cnc(Nc3ccc(C4CCN(CC(F)(F)F)CC4)cc3)c3nccn23)cs1 [Compound 194] | 0.501 to 1
7 | > 1 | NC(=O)c1cc(-c2cnc(Nc3ccc(NC(=O)c4ccccc4)nc3)c3nccn23)cs1 [Compound 195] | > 1
8 | > 1 | FC(F)(F)CN1CCC(c2ccc(Nc3ncc(-c4cn[nH]c4)n4ccnc34)cc2)CC1 [Compound 196] | > 1
9 | 0.101 to 0.5 | CC(C)N1CCC(c2ccc(Nc3ncc(-c4csc(C(N)=O)c4)n4ccnc34)cc2)CC1 [Compound 199, 4-{8-[4-(1-Isopropylpiperidin-4-yl)phenyl-amino]imidazo[1,2-a]pyrazin-5-yl}thiophene-2-carboxylic acid amide] | 0.101 to 0.5
10 | > 1 | O=C(Cc1ccccc1)Nc1ccc(Nc2ncc(-c3cn[nH]c3)n3ccnc23)cn1 [Compound 200, 2-Phenyl-N-{5-[5-(1H-pyrazol-4-yl)imidazo[1,2-a]pyrazin-8-ylamino]pyridin-2-yl}acetamide] | 0.101 to 0.5
11 | 0.501 to 1 | CC(C)N1CCN(c2ccc(Nc3ncc(-c4cn[nH]c4)n4ccnc34)cn2)CC1 [Compound 201, [6-(4-Isopropylpiperazin-1-yl)pyridin-3-yl]-[5-(1H-pyrazol-4-yl)-imidazo[1,2-a]pyrazin-8-yl]amine] | > 1
12 | 0.101 to 0.5 | CC(C)N1CCC(c2ccc(Nc3ncc(-c4cn[nH]c4)n4ccnc34)cc2)CC1 [Compound 202, [4-(1-Isopropylpiperidin-4-yl)phenyl]-[5-(1H-pyrazol-4-yl)imidazo[1,2-a]pyrazin-8-yl]amine] | > 1
13 | 0.001 to 0.1 | CC(C)N1CCC(c2ccc(Nc3ncc(-c4ccc5c(c4)CNC5=O)n4ccnc34)cc2)CC1 [Compound 206, 5-{8-[4-(1-Isopropylpiperidin-4-yl)phenylamino]-imidazo[1,2-a]pyrazin-5-yl}-2,3-dihydroisoindol-1-one] | > 1
14 | 0.501 to 1 | Nc1ccc(Nc2ncc(-c3cn[nH]c3)n3ccnc23)cn1 [Compound 207] | > 1
15 | > 1 | c1cn2c(-c3cn[nH]c3)cnc(Nc3ccc(N4CCOCC4)cn3)c2n1 [Compound 208, N-(5-Morpholinopyridin-2-yl)-5-(1H-pyrazol-4-yl)imidazo[1,2-a]pyrazin-8-amine] | > 1
16 | 0.101 to 0.5 | CC(C)N1CCN(c2ccc(Nc3ncc(-c4coc(C(N)=O)c4)n4ccnc34)cn2)CC1 [Compound 209, 4-{8-[6-(4-Isopropyl-piperazin-1-yl)-pyridin-3-ylamino]-imidazo[1,2-a]pyrazin-5-yl}-furan-2-carboxylic acid amide] | > 1
17 | 0.101 to 0.5 | O=C1NCc2cc(-c3cnc(Nc4ccc(N5CCOCC5)cn4)c4nccn34)ccc21 [Compound 211] | > 1
18 | 0.101 to 0.5 | N#Cc1[nH]ncc1-c1cnc(Nc2ccc(N3CCOCC3)cc2)c2nccn12 [Compound 212, 4-[8-(4-Morpholin-4-yl-phenylamino)-imidazo[1,2-a]pyrazin-5-yl]-2H-pyrazole-3-carbonitrile] | 0.101 to 0.5
19 | 0.101 to 0.5 | O=C1NCc2cc(-c3cnc(Nc4ccccc4)c4nccn34)ccc21 [Compound 213] | 0.101 to 0.5
20 | 0.001 to 0.1 | O=C1NCc2cc(-c3cnc(Nc4ccc(N5CCOCC5)nc4)c4nccn34)ccc21 [Compound 214] | > 1
21 | 0.101 to 0.5 | O=C1NCc2cc(-c3cnc(Nc4cnc(N5CCOCC5)nc4)c4nccn34)ccc21 [Compound 215] | > 1
22 | 0.501 to 1 | NC(=O)c1c(F)cc(-c2cnc(Nc3ccc(OCCN4CCOCC4)cc3)c3nccn23)cc1F [Compound 216] | > 1
23 | 0.101 to 0.5 | O=C1NCc2oc(-c3cnc(Nc4ccc(N5CCOCC5)cc4)c4nccn34)cc21 [Compound 217, 2-[8-(4-Morpholin-4-yl-phenylamino)-imidazo[1,2-a]pyrazin5-yl]-5,6-dihydro-furo[2,3-c]pyrrol-4-one] | > 1
24 | 0.101 to 0.5 | CC(C)N1CCN(c2ncc(Nc3ncc(-c4ccc5c(c4)CNC5=O)n4ccnc34)cn2)CC1 [Compound 219] | 0.501 to 1
25 | 0.001 to 0.1 | CC(C)N1CCN(c2ccc(Nc3ncc(-c4cc(F)c5c(c4)CNC5=O)n4ccnc34)cc2)CC1 [Compound 220, 7-Fluoro-5-{8-[4-(4-isopropyl-piperazin-1-yl)phenylamino]imidazo[1,2-a]pyrazin-5-yl}-2,3-dihydroisoindol-1-one] | > 1
26 | 0.101 to 0.5 | CC(C)N1CCN(c2ccc(Nc3ncc(-c4cc5c(o4)CNC5=O)n4ccnc34)cc2)CC1 [Compound 222] | 0.501 to 1
27 | 0.501 to 1 | NC(=O)CN1CCC(c2ccc(Nc3ncc(-c4cn[nH]c4)n4ccnc34)cc2)CC1 [Compound 224, 2-(4-{4-[5-(1H-Pyrazol-4-yl)imidazo[1,2-a]pyrazin-8-ylamino]phenyl}piperidin-1-yl)acetamide] | > 1
28 | 0.501 to 1 | Cc1n[nH]cc1-c1cnc(Nc2ccc(C3CCN(CC(N)=O)CC3)cc2)c2nccn12 [Compound 225, 2-(4-{4-[5-(3-Methyl-1H-pyrazol-4-yl)imidazo[1,2-a]pyrazin-8-ylamino]phenyl}piperidin-1-yl)acetamide] | > 1
29 | 0.101 to 0.5 | NC(=O)CN1CCC(c2ccc(Nc3ncc(-c4ccc5c(c4)CNC5=O)n4ccnc34)cc2)CC1 [Compound 226, 2-(4-{4-[5-(1-Oxo-2,3-dihydro-1H-isoindol-5-yl)-imidazo[1,2-a]pyrazin-8-ylamino]-phenyl}piperidin-1-yl)acetamide] | > 1
30 | > 1 | CC(C)N1CCN(c2ccc(Nc3ncc(-c4ccc5c(c4)C(C)(C)NC5=O)n4ccnc34)cc2)CC1 [Compound 227] | > 1

Source: patent US8178530B2, “Imidazolopyrazine compounds useful for the treatment of degenerative and inflammatory diseases” (Janssen Pharmaceutica NV, priority 2006, dated 2012)
